The record followed here is publication PMC6332320, “Factors Influencing Oral Bioavailability of Thai Mango Seed Kernel Extract and Its Key Phenolic Principles” (Molecules, 2015).

For the series, the system named is Caco-2 monolayer. Description: Caco-2 transepithelial transport experiment. The class given is in vitro ADME, human. Conditions: 20 µM. How it is done:
The transport experiment using Caco-2 monolayer was performed according to the criteria in our laboratory as previously reported with slight modification. Briefly, the cell monolayers were prepared by seeding 400,000 cells onto a polycarbonate insert, which has a surface area and pore size of 4.2 cm^2 and 3 μm, respectively (Nunc™, Thermo Fisher Scientific, Waltham, MA, USA). Cells were maintained in a humidified atmosphere at 37 °C (90% humidity and 5% CO2) and fed every other day. After 19 to 22 days post-seeding, the cell monolayers were used in the experiments. Before the experiment, the monolayers were quickly washed twice with pre-warmed HBSS at pH 7.4 (37 °C). The integrity of each monolayer was then verified by measuring the transepithelial electrical resistance (TEER) using a Millicell® ERS meter (Millipore, Bedford, MA, USA), and layers with TEER values less than 400 Ω/cm^2 relative to that of the blank insert were discarded. Then, the monolayers were incubated with the HBSS buffer at 37 °C for 1 h, and the incubation buffer was then aspirated. The test compounds were dissolved in HBSS at pH 6 to obtain final concentrations for the individual compounds (20 μM), mixture (20 μM) and MSKE (0.25 mg/mL), which were then loaded onto the A or B side (2.6 mL) as the donor side. A 2.6 mL aliquot of HBSS at pH 6 without the test compounds was loaded into the other side as the receiver side. After incubation at 37 °C, 0.6 mL of sample was collected from the receiver side at indicated times (60, 120, 180 and 240 min), and the same volume of receiver medium was replaced after each sampling. At the end of the experiment, the cells were washed twice with ice-cold HBSS at pH 6. The cells in each well were then collected and resuspended in 600 μL of HBSS at pH 6, and sonicated in an ice water bath at an output of 9 W for 30 min to obtain the cell lysates. The lysate was divided into the following aliquots: (1) 20 μL for quantitative protein assessment using a BCA™ protein assay kit and (2) 580 μL for quantitative test compounds. The samples collected from the transport study were stored at −20 °C until the UPLC or LC–MS/MS analysis. The experiments were performed in triplicate.
The apparent permeability coefficient (Papp, cm/s) of each compound was calculated according to the following equation (Equation (1)): (1) Papp= dQ/dt×1/AC0 where dQ/dt is the compound permeation rate (nmol/s), A denotes the membrane surface area, and C0 is the initial concentration on the donor side (µM). The efflux ratio was calculated according to the following equation (Equation (2)): (2) Efflux ratio= Papp BA(mean)/Papp AB(mean) where Papp BA (mean) and Papp AB (mean) are the average apparent permeability coefficients of each compound from side B to side A, and from side A to side B, respectively.
A general note: Caco-2 cells form a polarised layer with tight junctions and transporters.

SMILES strings stand for the structures.

For `O=C(O)c1cc(O)c(O)c(O)c1` [GA, Gallic acid], the “accumulation in the cells (cellular uptake)” value (after individual bi-directional transport across Caco-2 monolayer) is listed as “could not be detected”. Besides, the “Papp B to A” value (human, Caco-2, 240 min, pH 6) is given as 1.87 ± 0.47 ×10^−6 cm/s.
